Data: patent US9688684B2, “Substituted tetrazolo[1,5-a]pyrazines as ROR-gamma inhibitors” (Merck Patent GmbH, priority 2013, dated 2017)

How the values were obtained:
[1] = biological target: human RORγ ligand binding domain (GST-hRORγ-LBD) (Homo sapiens (Human), UniProt P51449); test: TR-FRET assay (biochemical cofactor interaction assay, GST-hRORγ-LBD / TRAP220 peptide)
Excerpt: RORγ is an orphan member of the nuclear receptor (NR) family displaying constitutive activity. The activity of nuclear receptors can be modulated by ligand-induced cofactor protein interactions. For example, agonist binding leads to recruitment of coactivator protein, and antagonist binding either blocks coactivator interaction or facilitates the recruitment of corepressors. […] The conformational change induced by ligand binding influences interactions with LXXLL motif peptides.
RORγ (t) is a thymus-specific isoform of RORγ which is widely expressed. It shares the same ligand binding domain (LBD) sequence with RORγ. Thus, a screen using the LBD will yield antagonists targeting both RORγ and RORγt.
In order to identify compounds which block activity of the human nuclear receptor Retinoid-related Orphan Receptor gamma (RORγ) a biochemical cofactor interaction assay based on the TR-FRET principle is performed. […] The ligand-binding domain (LBD) of RORγ is expressed as fusion protein with GST in […] cells using the vector pDEST15. Cells are lysed by lysozyme-treatment and sonication, and the fusion proteins purified over glutathione sepharose (Pharmacia) according to the manufacturers instructions. The strong constitutive interaction is disrupted upon binding of functional antagonists. The strength of the interaction is monitored by TR-FRET between streptavidine APC interacting with the biotinylated peptide and Europium-labelled Anti-GST.

[2] = biological target: RORγ Ligand binding domain (RORγ-LBD, aa 238-497, NP_001001523) (Homo sapiens (Human), UniProt P51449); test: ROR γ GAI4 Reporter Gene Assay (Mammalian one-hybrid, M1H) in 293T cells; format: cell-based
RORγ Ligand binding domain (RORγ-LBD, aa 238-497, NP_001001523), sequence (P51449 259-518): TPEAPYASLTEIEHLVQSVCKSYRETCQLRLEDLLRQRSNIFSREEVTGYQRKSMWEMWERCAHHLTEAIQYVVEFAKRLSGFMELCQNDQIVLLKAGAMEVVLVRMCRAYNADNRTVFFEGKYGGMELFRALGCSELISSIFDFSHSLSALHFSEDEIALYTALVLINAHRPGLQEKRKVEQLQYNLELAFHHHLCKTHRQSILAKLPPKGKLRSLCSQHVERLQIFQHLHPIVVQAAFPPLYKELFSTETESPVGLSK
Excerpt: ROR γ GAI4 Reporter Gene Assay
A Mammalian one-hybrid system is used to perform a cell-based functional transactivation assay for detecting RORγ activity modulators.
The Mammalian-1-Hybrid is derived from the Mammalian-2-Hybrid setup. Whereas in the latter, the binding partners are defined in their role as interaction, transactivation and DNA-binding components, the Mammalian-1-Hybrid makes use of the fact that all mammalian cell types express a set of Nuclear Receptors and their associated cofactors. […] A Gal4 minimal promoter driven luciferase construct (pFR-Luc from Stratagene, containing a synthetic promoter with five tandem repeats of the yeast GAL4 binding sites controlling expression of the Photinus pyralis luciferase gene) is used as reporter. The Gal4-DBD-NR-LBD fusion protein by itself cannot initiate transcription and is dependent on the presence of cofactors present in the cellular system used.
In order to rule out cytotoxic and unspecific transcriptional compound effects a transfection with a firefly luciferase driven by the constitutive CMV promoter is performed in parallel.
After transfection 18 μl complete MEM medium containing 3% charcoal-dextran treated FBS is added as well as 4 μl test compounds (DMSO stocks prediluted in OptiMem (Invitrogen)) followed by incubation for 16-24 h at 37° C., 5% CO2 and 90% rH.
Firefly luciferase activity is measured using the Promega ONE-Glo™ Luciferase Assay System.

human RORγ ligand binding domain (GST-hRORγ-LBD), sequence (P51449 269-508): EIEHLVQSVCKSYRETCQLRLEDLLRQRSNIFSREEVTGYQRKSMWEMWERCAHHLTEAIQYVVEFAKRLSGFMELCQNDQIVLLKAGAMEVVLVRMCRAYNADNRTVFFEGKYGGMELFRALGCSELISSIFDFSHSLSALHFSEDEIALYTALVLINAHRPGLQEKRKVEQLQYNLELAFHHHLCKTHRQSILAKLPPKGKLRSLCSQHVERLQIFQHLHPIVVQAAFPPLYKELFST

CC(C)c1nn(-c2ccccc2)cc1C1c2nnnn2CCN1Cc1cccs1 (racemic) [Compound 61, 8-(3-Isopropyl-1-phenyl-1H-pyrazol-4-yl)-7-thiophen-2-ylmethyl-5,6,7,8-tetrahydro-tetrazolo[1,5-a]pyrazine]
IC50 [1]: 0.01 to 0.99 µM | IC50 [2]: 0.01 to 0.99 µM

Fc1ccc(CN2CCn3nnnc3C2c2cccc(F)c2)cc1 (racemic) [Compound 91, 7-(4-Fluoro-benzyl)-8-(3-fluoro-phenyl)-5,6,7,8-tetrahydro-tetrazolo[1,5-a]pyrazine]
IC50 [1]: 0.99 to 9.9 µM | IC50 [2]: 0.01 to 0.99 µM

Cc1cccc(CN2CCn3nnnc3C2c2ccc(F)cc2)c1 (racemic) [Compound 93, 8-(4-Fluoro-phenyl)-7-(3-methyl-benzyl)-5,6,7,8-tetrahydro-tetrazolo[1,5-a]pyrazine]
IC50 [1]: 0.01 to 0.99 µM | IC50 [2]: 9.9 to 40 µM

Fc1ccc(C2c3nnnn3CCN2Cc2cccc(Br)c2)cc1 (racemic) [Compound 96, 7-(3-Bromo-benzyl)-8-(4-fluoro-phenyl)-5,6,7,8-tetrahydro-tetrazolo[1,5-a]pyrazine]
IC50 [1]: 0.01 to 0.99 µM | IC50 [2]: 0.99 to 9.9 µM

CC(C)c1nn(-c2ccccc2)cc1C1c2nnnn2CCN1Cc1cccs1 (single isomer, unassigned) [Compound 61-a, 8-(3-Isopropyl-1-phenyl-1H-pyrazol-4-yl)-7-thiophen-2-ylmethyl-5,6,7,8-tetrahydro-tetrazolo[1,5-a]pyrazine]
IC50 [1]: 0.01 to 0.99 µM | IC50 [2]: 0.01 to 0.99 µM

CC(C)c1nn(-c2ccccc2)cc1C1c2nnnn2CCN1Cc1cccs1 (single isomer, unassigned) [Compound 61-b, 8-(3-Isopropyl-1-phenyl-1H-pyrazol-4-yl)-7-thiophen-2-ylmethyl-5,6,7,8-tetrahydro-tetrazolo[1,5-a]pyrazine]
IC50 [1]: 9.9 to 40 µM | IC50 [2]: 0.99 to 9.9 µM

Fc1ccc(CN2CCn3nnnc3C2c2cccc(F)c2)cc1 (single isomer, unassigned) [Compound 91-b, 7-(4-Fluoro-benzyl)-8-(3-fluoro-phenyl)-5,6,7,8-tetrahydro-tetrazolo[1,5-a]pyrazine]
IC50 [1]: 0.99 to 9.9 µM | IC50 [2]: 0.99 to 9.9 µM

Cc1cccc(CN2CCn3nnnc3C2c2ccc(F)cc2)c1 (single isomer, unassigned) [Compound 93-a, 8-(4-Fluoro-phenyl)-7-(3-methyl-benzyl)-5,6,7,8-tetrahydro-tetrazolo[1,5-a]pyrazine]
IC50 [1]: 0.01 to 0.99 µM | IC50 [2]: 0.99 to 9.9 µM

Fc1ccc(C2c3nnnn3CCN2Cc2cccc(Br)c2)cc1 (single isomer, unassigned) [Compound 96-a, 7-(3-Bromo-benzyl)-8-(4-fluoro-phenyl)-5,6,7,8-tetrahydro-tetrazolo[1,5-a]pyrazine]
IC50 [1]: 0.01 to 0.99 µM | IC50 [2]: 0.99 to 9.9 µM

Fc1cccc(CN2CCn3nnnc3C2c2cccc(F)c2)c1 (stereo not shown) [Compound 38, 7-(3-Fluoro-benzyl)-8-(3-fluoro-phenyl)-5,6,7,8-tetrahydro-tetrazolo[1,5-a]pyrazine]
IC50 [1]: 0.99 to 9.9 µM | IC50 [2]: 0.99 to 9.9 µM

CC(C)c1nn(-c2ccccc2)cc1CN1CCn2nnnc2C1c1cccs1 (stereo not shown) [Compound 48, 7-(3-Isopropyl-1-phenyl-1H-pyrazol-4-ylmethyl)-8-thiophen-2-yl-5,6,7,8-tetrahydro-tetrazolo[1,5-a]pyrazine]
IC50 [1]: 0.01 to 0.99 µM | IC50 [2]: 9.9 to 40 µM

COc1ccc(OC)c(CN2CCn3nnnc3C2c2cn(-c3ccccc3)nc2C(C)C)c1 (stereo not shown) [Compound 54, 7-(2,5-Dimethoxy-benzyl)-8-(3-isopropyl-1-phenyl-1H-pyrazol-4-yl)-5,6,7,8-tetrahydro-tetrazolo[1,5-a]pyrazine]
IC50 [1]: 9.9 to 40 µM | IC50 [2]: 9.9 to 40 µM

CC(C)c1nn(-c2ccccc2)cc1C1c2nnnn2CCN1Cc1ccc2c(c1)OCO2 (stereo not shown) [Compound 58, 7-Benzo[1,3]dioxol-5-ylmethyl-8-(3-isopropyl-1-phenyl-1H-pyrazol-4-yl)-5,6,7,8-tetrahydro-tetrazolo[1,5-a]pyrazine]
IC50 [1]: 9.9 to 40 µM | IC50 [2]: 0.99 to 9.9 µM

CC(C)c1nn(-c2ccccc2)cc1C1c2nnnn2CCN1Cc1cccc(F)c1F (stereo not shown) [Compound 63, 7-(2,3-Difluoro-benzyl)-8-(3-isopropyl-1-phenyl-1H-pyrazol-4-yl)-5,6,7,8-tetrahydro-tetrazolo[1,5-a]pyrazine]
IC50 [1]: 9.9 to 40 µM | IC50 [2]: 0.01 to 0.99 µM

Brc1cccc(CN2CCn3nnnc3C2C2CCCCC2)c1 (stereo not shown) [Compound 65, 7-(3-Bromo-benzyl)-8-cyclohexyl-5,6,7,8-tetrahydro-tetrazolo[1,5-a]pyrazine]
IC50 [1]: 9.9 to 40 µM | IC50 [2]: 9.9 to 40 µM

COc1ccc(OC)c(CN2CCn3nnnc3C2c2cccc(F)c2F)c1 (stereo not shown) [Compound 71, 8-(2,3-Difluoro-phenyl)-7-(2,5-dimethoxy-benzyl)-5,6,7,8-tetrahydro-tetrazolo[1,5-a]pyrazine]
IC50 [1]: 9.9 to 40 µM | IC50 [2]: 9.9 to 40 µM

Cc1cccc(CN2CCn3nnnc3C2c2ccc3c(c2)OCCO3)c1 (stereo not shown) [Compound 95, 8-(2,3-Dihydro-benzo[1,4]dioxin-6-yl)-7-(3-methyl-benzyl)-5,6,7,8-tetrahydro-tetrazolo[1,5-a]pyrazine]
IC50 [1]: 0.01 to 0.99 µM | IC50 [2]: 0.99 to 9.9 µM

Cc1cccc(CN2CCn3nnnc3C2c2ccc(OC(C)C)cc2)c1 (stereo not shown) [Compound 99, 8-(4-Isopropoxy-phenyl)-7-(3-methyl-benzyl)-5,6,7,8-tetrahydro-tetrazolo[1,5-a]pyrazine]
IC50 [1]: 0.01 to 0.99 µM | IC50 [2]: 0.99 to 9.9 µM

Cc1cccc(C2c3nnnn3CCN2Cc2ccccc2)c1 (stereo not shown) [Compound 100, 7-Benzyl-8-m-tolyl-5,6,7,8-tetrahydro-tetrazolo[1,5-a]pyrazine]
IC50 [1]: 0.01 to 0.99 µM | IC50 [2]: 9.9 to 40 µM

Fc1cc(F)cc(C2c3nnnn3CCN2Cc2ccccc2)c1 (stereo not shown) [Compound 101, 7-Benzyl-8-(3,5-difluoro-phenyl)-5,6,7,8-tetrahydro-tetrazolo[1,5-a]pyrazine]
IC50 [1]: 0.01 to 0.99 µM | IC50 [2]: 9.9 to 40 µM

Fc1ccc(C2c3nnnn3CCN2Cc2ccccc2)cc1 (stereo not shown) [Compound 102, 7-Benzyl-8-(4-fluoro-phenyl)-5,6,7,8-tetrahydro-tetrazolo[1,5-a]pyrazine]
IC50 [1]: 0.01 to 0.99 µM | IC50 [2]: 9.9 to 40 µM

Clc1ccc(C2c3nnnn3CCN2Cc2cccs2)cc1 (stereo not shown) [Compound 106, 8-(4-Chloro-phenyl)-7-thiophen-2-ylmethyl-5,6,7,8-tetrahydro-tetrazolo[1,5-a]pyrazine]
IC50 [1]: 0.01 to 0.99 µM | IC50 [2]: 9.9 to 40 µM

Fc1cc(F)cc(C2c3nnnn3CCN2Cc2cccc(Br)c2)c1 (stereo not shown) [Compound 107, 7-(3-Bromo-benzyl)-8-(3,5-difluoro-phenyl)-5,6,7,8-tetrahydro-tetrazolo[1,5-a]pyrazine]
IC50 [1]: 0.01 to 0.99 µM | IC50 [2]: 9.9 to 40 µM

CC(C)c1nn(-c2ccccc2)cc1C1c2nnnn2CCN1C1CCCCC1 (stereo not shown) [Compound 114, 7-Cyclohexyl-8-(3-isopropyl-1-phenyl-1H-pyrazol-4-yl)-5,6,7,8-tetrahydro-tetrazolo[1,5-a]pyrazine]
IC50 [1]: 0.99 to 9.9 µM | IC50 [2]: 9.9 to 40 µM

Cc1cccc(CN2CCn3nnnc3C2c2cccc(F)c2)c1 (stereo not shown) [Compound 116, 8-(3-Fluoro-phenyl)-7-(3-methyl-benzyl)-5,6,7,8-tetrahydro-tetrazolo[1,5-a]pyrazine]
IC50 [1]: 0.99 to 9.9 µM | IC50 [2]: 0.99 to 9.9 µM

Fc1cccc(C2c3nnnn3CCN2Cc2cccs2)c1 (stereo not shown) [Compound 117, 8-(3-Fluoro-phenyl)-7-thiophen-2-ylmethyl-5,6,7,8-tetrahydro-tetrazolo[1,5-a]pyrazine]
IC50 [1]: 0.99 to 9.9 µM | IC50 [2]: 9.9 to 40 µM

Fc1ccccc1C1c2nnnn2CCN1Cc1cccc(Br)c1 (stereo not shown) [Compound 119, 7-(3-Bromo-benzyl)-8-(2-fluoro-phenyl)-5,6,7,8-tetrahydro-tetrazolo[1,5-a]pyrazine]
IC50 [1]: 0.99 to 9.9 µM | IC50 [2]: 0.99 to 9.9 µM

Fc1ccc(C2c3nnnn3CCN2Cc2cccs2)cc1 (stereo not shown) [Compound 125, 8-(4-Fluoro-phenyl)-7-thiophen-2-ylmethyl-5,6,7,8-tetrahydro-tetrazolo[1,5-a]pyrazine]
IC50 [1]: 0.99 to 9.9 µM | IC50 [2]: 9.9 to 40 µM

CCn1cc(CN2CCn3nnnc3C2c2cn(-c3ccccc3)nc2C(C)C)cn1 (stereo not shown) [Compound 155, 7-(1-Ethyl-1H-pyrazol-4-ylmethyl)-8-(3-isopropyl-1-phenyl-1H-pyrazol-4-yl)-5,6,7,8-tetrahydro-tetrazolo[1,5-a]pyrazine]
IC50 [1]: 9.9 to 40 µM

Cc1nn(C)c(C)c1CN1CCn2nnnc2C1c1cn(-c2ccccc2)nc1C(C)C (stereo not shown) [Compound 157, 8-(3-Isopropyl-1-phenyl-1H-pyrazol-4-yl)-7-(1,3,5-trimethyl-1H-pyrazol-4-ylmethyl)-5,6,7,8-tetrahydro-tetrazolo[1,5-a]pyrazine]
IC50 [1]: 9.9 to 40 µM
